Data from US10774064B2 (Cadent Therapeutics, Inc., priority 2016, dated 2020).

Molecular target: T1, small-conductance Ca2+-activated K+ channels (SK channels, subtype 2) (Homo sapiens, UniProt Q9H2S1)
T1 construct: expressed in transfected cells; host or cells: HEK293
Assay: whole-cell patch-clamp of ionic current through SK2 channels in HEK293 cells (SC100)
Type: cell-based
Settings: whole-cell patch-clamp, HEK293 cells expressing SK2 channels; concentration that increases the basal current by 100%
In short: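 SC100, the concentration doubling basal current (a 100% increase), was taken from SK2 currents recorded by whole-cell patch-clamp in SK2-expressing HEK293 cells.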

COC(C)c1cc(-n2nc(C)cc2C)nc(NC2CCC(F)(F)CC2)n1 (centres unmarked) [NSSy6612]
SC100 (μM): + (+ means >1 uM)

COC(C)c1cc(-n2ccc(C(F)(F)F)n2)nc(NC2CCC(F)(F)CC2)n1 (centres unmarked) [NSSy6613]
SC100 (μM): + (+ means >1 uM)

CC(O)c1cc(-n2ccc(C(F)(F)F)n2)nc(NC2CCC(F)(F)CC2)n1 (centres unmarked) [NSSy6614]
SC100 (μM): + (+ means >1 uM)

CCOc1cc(-n2ccc(C)n2)nc(NC2CCC(F)(F)CC2)n1 [NSSy6625]
SC100 (μM): + (+ means >1 uM)

CC(=O)N1CCN(c2cc(-n3ccc(C)n3)nc(NC3CCC(F)(F)CC3)n2)CC1 [NSSy6629, 1-(4-(2-((4,4-difluorocyclohexyl)amino)-6-(3-methyl-1H-pyrazol-1-yl)pyrimidin-4-yl)piperazin-1-yl)ethan-1-one]
SC100 (μM): ++ (++ means 200 nM-1000 nM)

Cc1cc(C)n(-c2cc(N3C[C@H]4C[C@@H]3CO4)nc(NC3CCC(F)(F)CC3)n2)n1 [NSSy6638]
SC100 (μM): ++ (++ means 200 nM-1000 nM)

Cc1cc(C)n(-c2cc(N3C[C@@H]4C[C@H]3CO4)nc(NC3CCC(F)(F)CC3)n2)n1 [NSSy6639]
SC100 (μM): + (+ means >1 uM)

Cc1cc(C)n(-c2cc(N3CC4CCC(C3)O4)nc(NC3CCC(F)(F)CC3)n2)n1 [NSSy6644]
SC100 (μM): + (+ means >1 uM)

Cc1ccn(-c2cc(C(C)O)nc(NC3CCC(F)(F)CC3)n2)n1 (centres unmarked) [NSSy6650]
SC100 (μM): + (+ means >1 uM)

COC(C)c1cc(-n2ccc(C)n2)nc(NC2CCC(F)(F)CC2)n1 (centres unmarked) [NSSy6651]
SC100 (μM): + (+ means >1 uM)

Cc1cc(C)n(-c2cc(-n3nc(C)cc3C)nc(NC3CCC(F)(F)CC3)n2)n1 [NSSy6654]
SC100 (μM): + (+ means >1 uM)

COCc1cc(-n2ccc(C(F)(F)F)n2)nc(NC2CCC(F)(F)CC2)n1 [NSSy6674, N-(4,4-difluorocyclohexyl)-4-(methoxymethyl)-6-(3-(trifluoromethyl)-1H-pyrazol-1-yl)pyrimidin-2-amine]
SC100 (μM): + (+ means >1 uM)

COCCOc1cc(-n2ccc(C)n2)nc(NC2CCC(F)(F)CC2)n1 [NSSy6675]
SC100 (μM): + (+ means >1 uM)

Cc1ccn(-c2cc(N(C)C)nc(NC3CCC(F)(F)CC3)n2)n1 [NSSy6677]
SC100 (μM): + (+ means >1 uM)

Cc1ccn(-c2cc(N3CCNCC3)nc(NC3CCC(F)(F)CC3)n2)n1 [NSSy6679]
SC100 (μM): ++ (++ means 200 nM-1000 nM)

Cc1ccn(-c2cc(C(=O)O)nc(NC3CCC(F)(F)CC3)n2)n1 [NSSy6684, 2-((4,4-difluorocyclohexyl)amino)-6-(3-methyl-1H-pyrazol-1-yl)pyrimidine-4-carboxylic acid]
SC100 (μM): + (+ means >1 uM)

Cc1ccn(-c2cc(OCCN(C)C)nc(NC3CCC(F)(F)CC3)n2)n1 [NSSy6686]
SC100 (μM): ++ (++ means 200 nM-1000 nM)

CNc1cc(-n2ccc(C)n2)nc(NC2CCC(F)(F)CC2)n1 [NSSy6688]
SC100 (μM): ++ (++ means 200 nM-1000 nM)

COC(C)c1cc(-c2nc(C)cs2)nc(NC2CCC(F)(F)CC2)n1 (centres unmarked) [NSSy6697, N-(4,4-difluorocyclohexyl)-4-(1-methoxyethyl)-6-(4-methylthiazol-2-yl)pyrimidin-2-amine]
SC100 (μM): + (+ means >1 uM)

Cc1ccn(-c2cc(N)nc(NC3CCC(F)(F)CC3)n2)n1 [NSSy6698, N2-(4,4-difluorocyclohexyl)-6-(3-methyl-1H-pyrazol-1-yl)pyrimidine-2,4-diamine]
SC100 (μM): + (+ means >1 uM)

COCCNc1cc(-n2ccc(C)n2)nc(NC2CCC(F)(F)CC2)n1 [NSSy6700]
SC100 (μM): + (+ means >1 uM)

Cc1csc(-c2cc(-c3nc(C)cs3)nc(NC3CCC(F)(F)CC3)n2)n1 [NSSy6704, N-(4,4-difluorocyclohexyl)-4,6-bis(4-methylthiazol-2-yl)pyrimidin-2-amine]
SC100 (μM): + (+ means >1 uM)

Cc1csc(-c2cc(C#N)nc(NC3CCC(F)(F)CC3)n2)n1 [NSSy6710, 2-((4,4-difluorocyclohexyl)amino)-6-(4-methylthiazol-2-yl)pyrimidine-4-carbonitrile]
SC100 (μM): + (+ means >1 uM)

COCc1cc(-c2nc(C)cs2)nc(NC2CCC(F)(F)CC2)n1 [NSSy6711, N-(4,4-difluorocyclohexyl)-4-(methoxymethyl)-6-(4-methylthiazol-2-yl)pyrimidin-2-amine]
SC100 (μM): ++ (++ means 200 nM-1000 nM)

Cc1ccn(-c2cc(OCCn3nncc3C)cc(NC3CCC(F)(F)CC3)n2)n1 [NSSy6719]
SC100 (μM): +++ (+++ means <200 nM)

Cc1cc(C)n(-c2cc(C#N)nc(NC3CCC(F)(F)CC3)n2)n1 [NSSy6721, 2-((4,4-difluorocyclohexyl)amino)-6-(3,5-dimethyl-1H-pyrazol-1-yl)pyrimidine-4-carbonitrile]
SC100 (μM): + (+ means >1 uM)

Cc1ccn(-c2cc(C#N)nc(NC3CCC(F)(F)CC3)n2)n1 [NSSy6722, 2-((4,4-difluorocyclohexyl)amino)-6-(3-methyl-1H-pyrazol-1-yl)pyrimidine-4-carbonitrile]
SC100 (μM): + (+ means >1 uM)

COCc1cc(-n2nc(C)cc2C)nc(NC2CCC(F)(F)CC2)n1 [NSSy6724]
SC100 (μM): ++ (++ means 200 nM-1000 nM)

CO[C@@H](C)c1cc(-c2nc(C)cs2)nc(NC2CCC(F)(F)CC2)n1 [NSSy6729, (S)—N-(4,4-difluorocyclohexyl)-4-(1-methoxyethyl)-6-(4-methylthiazol-2-yl)pyrimidin-2-amine]
SC100 (μM): + (+ means >1 uM)

Cc1csc(-c2cc(CO)cc(NC3CCC(F)(F)CC3)n2)n1 [NSSy6730, (2-((4,4-difluorocyclohexyl)amino)-6-(4-methylthiazol-2-yl)pyridin-4-yl) methanol]
SC100 (μM): ++ (++ means 200 nM-1000 nM)

Cc1nc(NC2CCC(F)(F)CC2)nc(-n2nc(C)c(Br)c2C)c1Br [NSSy6736, 5-bromo-4-(4-bromo-3,5-dimethyl-1H-pyrazol-1-yl)-N-(4,4-difluorocyclohexyl)-6-methylpyrimidin-2-amine]
SC100 (μM): + (+ means >1 uM)

COCc1cc(-n2ccc(C)n2)nc(NC2CCC(F)(F)CC2)n1 [NSSy6744, N-(4,4-difluorocyclohexyl)-4-(methoxymethyl)-6-(3-methyl-1H-pyrazol-1-yl)pyrimidin-2-amine]
SC100 (μM): ++ (++ means 200 nM-1000 nM)

Cc1csc(-c2cc(C(O)c3nnc(C)o3)cc(NC3CCC(F)(F)CC3)n2)n1 (centres unmarked) [NSSy6750, (2-((4,4-difluorocyclohexyl)amino)-6-(4-methylthiazol-2-yl)pyridin-4-yl)(5-methyl-1,3,4-oxadiazol-2-yl)methanol]
SC100 (μM): ++ (++ means 200 nM-1000 nM)

Cc1ccn(-c2cc(CO)cc(Nc3ccc(F)cc3F)n2)n1 [NSSy6773]
SC100 (μM): ++ (++ means 200 nM-1000 nM)

Cc1csc(-c2cc(C(O)Cc3nnco3)cc(NC3CCC(F)(F)CC3)n2)n1 (centres unmarked) [NSSy6782, 1-(2-((4,4-difluorocyclohexyl)amino)-6-(4-methylthiazol-2-yl)pyridin-4-yl)-2-(1,3,4-oxadiazol-2-yl)ethan-1-ol]
SC100 (μM): ++ (++ means 200 nM-1000 nM)
